# Experimental data reported in ChEMBL document CHEMBL3885881, “DrugMatrix”.
# Several values for one entry are separate records, joined by “and”; a condition that tells them apart may be missing. Equal entries are not always repeated.
# Species: Rattus norvegicus
# Experiment: DrugMatrix - Regimen: Daily Repeat
# Assay type: toxicity, organism-based, Sprague-Dawley
# Set-up: regimen Daily Repeat, gender Male, age 6-8 weeks
# Settings: in vivo, vehicle 100 % SALINE; for ALANINE AMINOTRANSFERASE / ALBUMIN / ALKALINE PHOSPHATASE / ASPARTATE AMINOTRANSFERASE / BLOOD UREA NITROGEN / CARBON DIOXIDE / CHLORIDE / CHOLESTEROL / CREATINE PHOSPHOKINASE / CREATININE / GLUCOSE / LACTATE DEHYDROGENASE / LIPASE / PHOSPHORUS / POTASSIUM / SODIUM / TOTAL BILIRUBIN / TOTAL PROTEIN / URIC ACID: tissue Plasma
# [1] = ip, 2 mg/kg, 120 h, tissue Blood, route intraperitoneal, dose level High, time 5 day
# [2] = ip, 2 mg/kg, 120 h, route intraperitoneal, dose level High, time 5 day
# [3] = ip, 2 mg/kg, […], tissue Blood, route intraperitoneal, dose level High, time 14 day
# [4] = ip, 2 mg/kg, […], tissue Blood, route intraperitoneal, dose level High, time 28 day
# [5] = ip, 2 mg/kg, […], route intraperitoneal, dose level High, time 14 day
# [6] = ip, 2 mg/kg, […], route intraperitoneal, dose level High, time 28 day
# [7] = po, 0 mg/kg, 72 h, tissue Blood, route oral GAVAGE, dose level Control, time 3 day
substance,measurement,setting,value
LEAD (II) ACETATE,BASOPHIL,[1],0.92% and 0.35%
same,EOSINOPHIL,[1],1.12% and 0.5%
same,ERYTHROCYTE COUNT,[1],7.54 x10E6/uL and 7.26 x10E6/uL
same,HEMATOCRIT,[1],45.88% and 47.9%
same,HEMOGLOBIN,[1],15 G/DL and 15.17 G/DL
same,LEUKOCYTE COUNT,[1],13.21 x10E3/uL and 9.67 x10E3/uL
same,LYMPHOCYTE,[1],76.12% and 82.6%
same,MEAN CORPUSCULAR HEMOGLOBIN,[1],20.9 pg
same,MEAN CORPUSCULAR HEMOGLOBIN CONCENTRATION,[1],32.66 G/DL and 31.67 G/DL
same,MEAN CORPUSCULAR VOLUME,[1],66 fL
same,MONOCYTE,[1],1.94% and 1.57%
same,NEUTROPHIL,[1],19.32% and 13.95%
same,PLATELET COUNT,[1],1605.4 x10E3/uL and 1679.25 x10E3/uL
same,ALANINE AMINOTRANSFERASE,[2],30.6 u/L and 16 u/L
same,ALBUMIN,[2],3.32 G/DL and 4.1 G/DL
same,ALKALINE PHOSPHATASE,[2],221 u/L and 290.75 u/L
same,ASPARTATE AMINOTRANSFERASE,[2],83.2 u/L and 78.25 u/L
same,BLOOD UREA NITROGEN,[2],13.8 mg/dL and 16.75 mg/dL
same,CARBON DIOXIDE,[2],24 mmol/L
same,CHLORIDE,[2],109.2 MEQ/L and 108.75 MEQ/L
same,CHOLESTEROL,[2],57 mg/dL and 58.25 mg/dL
same,CREATINE PHOSPHOKINASE,[2],338.6 u/L and 224.25 u/L
same,CREATININE,[2],0.54 mg/dL and 0.4 mg/dL
same,GLUCOSE,[2],117.4 mg/dL and 114.75 mg/dL
same,LACTATE DEHYDROGENASE,[2],76.2 u/L
same,LIPASE,[2],36 u/L and 14.25 u/L
same,PHOSPHORUS,[2],10.02 mg/dL and 13.3 mg/dL
same,POTASSIUM,[2],6.38 MEQ/L and 6.15 MEQ/L
same,SODIUM,[2],151.2 MEQ/L and 152.25 MEQ/L
same,TOTAL BILIRUBIN,[2],0.16 mg/dL and 0.3 mg/dL
same,TOTAL PROTEIN,[2],5.8 G/DL and 6.3 G/DL
same,URIC ACID,[2],1.08 mg/dL and 2.1 mg/dL
same,ABSOLUTE BASOPHIL,[3],88 cells/µL
same,ABSOLUTE EOSINOPHIL,[3],74 cells/µL
same,ABSOLUTE LYMPHOCYTE,[3],8320 cells/µL
same,ABSOLUTE MONOCYTE,[3],390 cells/µL
same,ABSOLUTE SEGMENTED NEUTROPHIL,[3],3420 cells/µL
same,HEMOGLOBIN,[3],14.2 G/DL
same,MEAN CORPUSCULAR VOLUME,[3],59.1 fL
same,ABSOLUTE BASOPHIL,[4],93 cells/µL
same,ABSOLUTE EOSINOPHIL,[4],130 cells/µL
same,ABSOLUTE LYMPHOCYTE,[4],9520 cells/µL
same,ABSOLUTE MONOCYTE,[4],320 cells/µL
same,ABSOLUTE SEGMENTED NEUTROPHIL,[4],2680 cells/µL
same,BASOPHIL,[4],0.79%
same,EOSINOPHIL,[4],1.01%
same,ERYTHROCYTE COUNT,[4],8.38 x10E6/uL
same,HEMATOCRIT,[4],46.51%
same,HEMOGLOBIN,[4],14.88 G/DL
same,LEUKOCYTE COUNT,[4],12.81 x10E3/uL
same,LYMPHOCYTE,[4],74.22%
same,MEAN CORPUSCULAR HEMOGLOBIN,[4],17.76 pg
same,MEAN CORPUSCULAR HEMOGLOBIN CONCENTRATION,[4],32.02 G/DL
same,MEAN CORPUSCULAR VOLUME,[4],55.46 fL
same,MONOCYTE,[4],2.51%
same,NEUTROPHIL,[4],20.93%
same,PLATELET COUNT,[4],1429.8 x10E3/uL
same,CARBON DIOXIDE,[5],26 mmol/L
same,TOTAL PROTEIN,[5],5.9 G/DL
same,ALANINE AMINOTRANSFERASE,[6],25.8 u/L
same,ALBUMIN,[6],3.52 G/DL
same,ALKALINE PHOSPHATASE,[6],146.4 u/L
same,ASPARTATE AMINOTRANSFERASE,[6],80.7 u/L
same,BLOOD UREA NITROGEN,[6],13.3 mg/dL
same,CHLORIDE,[6],109.1 MEQ/L
same,CHOLESTEROL,[6],54 mg/dL
same,CREATINE PHOSPHOKINASE,[6],159.1 u/L
same,CREATININE,[6],0.58 mg/dL
same,GLUCOSE,[6],112.6 mg/dL
same,LACTATE DEHYDROGENASE,[6],73.7 u/L
same,LIPASE,[6],26.7 u/L
same,PHOSPHORUS,[6],9.13 mg/dL
same,POTASSIUM,[6],6.27 MEQ/L
same,SODIUM,[6],150.5 MEQ/L
same,TOTAL BILIRUBIN,[6],0.21 mg/dL
same,TOTAL PROTEIN,[6],6.39 G/DL
same,URIC ACID,[6],1.41 mg/dL
same,ABSOLUTE BASOPHIL,[7],0 CELLS/uL
same,ABSOLUTE EOSINOPHIL,[7],37 CELLS/uL
same,ABSOLUTE LYMPHOCYTE,[7],12359.33 CELLS/uL
same,ABSOLUTE MONOCYTE,[7],122.67 CELLS/uL
same,ABSOLUTE SEGMENTED NEUTROPHIL,[7],847.67 CELLS/uL
same,BASOPHIL,[7],0%
same,EOSINOPHIL,[7],0.33%
same,ERYTHROCYTE COUNT,[7],5.75 x10E6/uL
same,HEMATOCRIT,[7],36.08%
same,LEUKOCYTE COUNT,[7],13.37 x10E3/uL
same,MEAN CORPUSCULAR HEMOGLOBIN CONCENTRATION,[7],38.98 G/DL
same,MONOCYTE,[7],1%
same,NEUTROPHIL,[7],6.17%
same,NUCLEATED RED BLOOD CELLS,[7],0.17 /100WBC
same,PLATELET COUNT,[7],1202.17 x10E3/uL
